Assays:
Assay type in all cases: cell-based, murine
Aβ generation = test: Aβ ELISA, conditioned media of APP-transfected N2a cells (Example 1)
Method: Aβ1-40 and 1-42 peptides were analyzed in the conditioned media from SweAPP N2a cells (FIGS. 1A, 1C, 1D) and transgenic APPsw mouse-derived primary neuronal cells (FIG. 1B) by ELISA (n=3 for each condition).
TAPI-1, β and γ-secretase inhibitors were obtained from Calbiochem (San Diego, Calif.). Green tea extract (75% polyphenols) was obtained from the Vitamin Shoppe™ (North Bergen, N.J.).
Cultured cells were lysed in ice-cold-lysis buffer (20 mM Tris, pH 7.5, 150 mM NaCl, 1 mM EDTA, 1 mM EGTA, 1% v/v Triton X-100, 2.5 mM sodium pyropgosphate, 1 mM β-glycerolphosphate, 1 mM Na3VO4, 1 μg/mL leupeptin, 1 mM PMSF) as previously described (Tan et al., 2002). Mouse brains were isolated under sterile conditions on ice and placed in ice-cold lysis buffer. Brains were then sonicated on ice for approximately 3 min, allowed to stand for 15 min at 4° C., and centrifuged at 15,000 rpm for 15 min. Total Aβ1-42 species were detected by acid extraction of brain homogenates in 5 M guanidine buffer (ret), followed by a 1:10 dilution in lysis buffer. Soluble Aβ1-42 was directly detected in cultured cell lysates or brain homogenates prepared with lysis buffer described above by a 1:4 or 1:10 dilution, respectively. Aβ1-42 was quantified in these samples using the Aβ1-42 ELISA kit (BioSource, Camarillo, Calif.) in accordance with the manufacturer's instructions, except that standards included a 0.5 M guanidine buffer.
In order to examine the effects of green tea's components on APP cleavage processing, for a first step, N2a neuroblastoma cells overproducing Aβ were treated with each of the aforementioned components at a wide range of doses. In addition, doses of (+)-catechin hydrate (CH) and gallic acid monohydrate (GAM) were included in the first step.

Aβ1-40 and Aβ1-42 = test: Aβ1-40/Aβ1-42 ELISA, conditioned media of SweAPP N2a cells (Examples 6-7, with or without siRNA knock-down); details: various doses of EGCG, 8 h
Source text: FIGS. 8A-8H show EGCG-induced ADAM10 activation correlates with APP α-secretase cleavage in vitro. […] Data were represented as % change relative to control (medium from cultured SweAPP N2a cells or primary neuronal cells without any treatment).
FIGS. 10A-10C show ADAM10 is required for EGCG-induced APP α-secretase cleavage. […] In FIG. 10A, cell lysates were subjected to WB for APP CTFs and ADAM10 cleavage analyses. […] In FIG. 10B, cell culture media were subjected to WB for sAPP-α secretion. […] In FIG. 10C, cell culture media were subjected to Aβ ELISA. Data are represented as % change relative to control (medium from cultured SweAPP N2a cells without any treatment). […]
Conditioned media were collected and analyzed at a 1:1 dilution using the method as previously described (Tan et al., 2002) and values were reported as percentage of Aβ1-x secreted relative to control. Quantitation of total Aβ species was performed according to published methods (Marambaud, P. et al., 2005). […] The optical density of each well was immediately determined by a microplate reader at 450 nm. In addition, Aβ1-40, or Aβ1-42 was separately quantified in these samples using the Aβ1-40 Aβ1-42 ELISA kits (IBL-America, Minneapolis, Minn.) in accordance with the manufacturer's instructions. In all cases, Aβ levels were expressed as a percentage of control (conditioned medium from untreated SWeAPP N2a cells). […]

ADAM10 mRNA = test: RT-PCR of ADAM10 mRNA in SweAPP N2a cells; details: various doses of EGCG, 8 h
Method: Analysis of murine ADAM10 was conducted according to previously published methods (Ehrhart et al., 2005; Park et al., 2001). Briefly, total RNA was isolated from SweAPP N2a cells and subjected to reverse transcription utilizing a commercially available kit (cDNA Cycle® kit; Invitrogen, Carlsbad, Calif.) according to the manufacturer's instructions on a Bio-Rad iCycler thermocycler. […] Thermocycler conditions consisted of an initial denaturing step at 95° C. for 15 min, followed by 35 cycles of 94° C. for 30 s, 50° C. for 1 min, and 72° C. for 1 min at, and a final extension step at 72° C. for 10 min. Resolution and analysis of PCR products (murine ADAM10: 881 bp, murine γ-actin: 357 bp) band densities was conducted by ethidium bromide-stained agarose gel electrophoresis and identified using UV transillumination by comparisons with molecular weight markers (Invitrogen). Samples that were not subjected to reverse transcription were run in parallel as negative controls to rule out DNA contamination as a template for PCR products (data not shown). A “no template control” was also included for each primer set as a further negative control (data not shown). Amplification of γ-actin was used to normalize for input cDNA.

α-secretase = α-secretase cleavage activity kit, lysates of APP-transfected N2a cells; details: first 1 to 3 hours after EGCG
[1] = tested on: TNF-a converting enzyme (TACE); test: Western blot of TACE in APP-transfected N2a cells; details: in 3 to 4 hours following EGCG treatment, then rapidly cleaved through 8 hours
Method: Cell cultured supernatants were collected and cell lysates were prepared from these cultured cells.
Cultured cells and mouse brain were lysed in ice-cold lysis buffer described above, and an aliquot corresponding to 50 μg of total protein was electrophoretically separated using 16.5% Tris-tricine gels. Electrophoresed proteins were then transferred to PVDF membranes (Bio-Rad), washed in dH2O, and blocked for 1 hour at ambient temperature in Tris-buffered saline (TBS; Bio-Rad) containing 5% (w/v) for non-fat dry milk. After blocking, membranes were hybridized for 1 hour at ambient temperature with various antibodies, including against the C- (369), N-terminus of APP (22C11), the N-terminus of Aβ (6E10), and ADAM10 and TACE (Calbiochem). […] Densitometric analysis was done using the Fluor-S Multimager™ with Quantity One™ software (Bio-Rad). […] Antibodies used for Western blot included antibody 369 (1:1,000), anti-C-terminal APP antibody (1:500; Chemicon, Temecula, Calif.), BAM-10 (1:1,000; Sigma), 6E10 (1:1,000; Signet) or anti-Actin antibody (1:1,500; as an internal reference control; Roche). α-, β- and γ-secretase activities were quantified in cell lysates and mouse brain homogenates using available kits based on secretase-specific peptides conjugated to fluorogenic receptor molecules (R&D Systems, Minneapolis, Minn.).

O=C(O[C@@H]1Cc2c(O)cc(O)cc2O[C@@H]1c1cc(O)c(O)c(O)c1)c1cc(O)c(O)c(O)c1 [EGCG, (−)-epigallocatechin-3-gallate]
reduction of Aβ1-42 generation over control (PBS) (Aβ generation; 20 μM, human APP695-transfected N2a cells, FIG. 1A): 60% | ability to inhibit Aβ generation, purified EGCG versus same amounts EGCG present in GT mixtures (Aβ generation; SweAPP N2a cells, equivalent doses, FIG. 1D): much greater | Aβ1-40 concentration (Aβ1-40 and Aβ1-42): dose-dependent reductions | Aβ1-42 concentration (Aβ1-40 and Aβ1-42): dose-dependent reductions | ADAM10 mRNA levels (ADAM10 mRNA): no significant between-EGCG dose differences | α-secretase cleavage activity in cell lysate (α-secretase): markedly elevated | TACE expression [1]: significantly increased

From US20130261045A1, “GREEN TEA POLYPHENOL ALPHA SECRETASE ENHANCERS AND METHODS OF USE” (UNIVERSITY OF SOUTH FLORIDA, priority 2005, published 2013)
